Molecules are shown by their SMILES.

Consider 6 molecules from patent US9260739B2, “Method for the detection of acid production by cariogenic bacteria” (Ivoclar Vivadent AG, priority 2010, dated 2016).

Test system in the first data set: not listed separately
The experiment in a line: pK of pH indicators. The class given is physicochemical. The note with it: pH indicator. As to the method:
In an alternative embodiment, the pH is determined using a pH indicator which changes colour on acid formation. The pH indicator is preferably added to the cariogenic bacteria together with the carbon source, e.g. by joint immobilization of pH indicator and carbon source on a test strip or by simultaneous addition of pH indicator and carbon source (preferably in the form of a single solution) to a diluted, undiluted or concentrated plaque or saliva sample. […] These comprise, e.g., the indicators bromocresol purple, bromocresol green, m-cresol purple, bromothymol blue, phenol red and chlorophenol red. […] The incubation time that must be applied until a colour change can be detected, depends on the carbon sources and test reagents used and also on their absolute and relative quantitative ratios to one another. In a preferred embodiment, the time period to a colour change of the pH indicator is less than 60 minutes, less than 45 minutes, less than 30 minutes, less than 20 minutes or less than 15 minutes after mixing bacteria, carbon source and indicator.
With `Cc1c(C2(c3cc(Br)c(O)c(Br)c3C)OS(=O)(=O)c3ccccc32)cc(Br)c(O)c1Br` [Bromocresol green], the pK turned out to be 4.7.

On to `Cc1cc(C2(c3cc(C)c(O)c(Br)c3)OS(=O)(=O)c3ccccc32)cc(Br)c1O` [Bromocresol purple], for which the pK was found to be 6.

Regarding `Cc1c(C2(c3cc(C(C)C)c(O)c(Br)c3C)OS(=O)(=O)c3ccccc32)cc(C(C)C)c(O)c1Br` [Bromothymol blue], the pK is given as 7.

For `O=S1(=O)OC(c2ccc(O)c(Cl)c2)(c2ccc(O)c(Cl)c2)c2ccccc21` [Chlorophenol red], the pK was determined as 5.6.

For the molecule `Cc1cc(O)ccc1C1(c2ccc(O)cc2C)OS(=O)(=O)c2ccccc21` [m-Cresol purple], the pK is 8.2.

The subject of another data set is S. sobrinus. Kind of data set: Acid production in vitro by pure culture, colour change of pH indicator. The class given is cell-based. The following applies: carbon source at 20% in the reaction batch, only S. sobrinus, FIG. 1. As to the method: Stock cultures of the strain selected for the experiments were stored on CRYOBANK (Mast Diagnostica, CRYO/M) ceramic supports at a temperature of −80° C. For culturing, a ceramic ring was placed into 10 ml of nutrient medium and incubated 14-72 h. This culture was designated passage 0 (P0). Then, 100 μl of culture were inoculated into 10 ml of fresh medium and incubated for 24 h. Cultures of passage 2 were used for the subsequent experiments on acid production. The cultures were diluted in this case until an absorption at 650 nm of about 0.6-1.0 was obtained. The bacterial suspensions were centrifuged at 8000 rpm for 5 minutes. The culture supernatant was removed and the pellet was resuspended in the same volume of water (10 ml, deionized, sterile). The sample was centrifuged again (8000 rpm, 5 minutes) and the supernatant was removed. The pellet was subsequently resuspended in 1 ml of deionized water which corresponds to 1/10 of the original volume. […] Then, the appropriate pH was adjusted and the mixture was filled up to the calculated volume using deionized water. […] After addition of the bacterial suspension to the respective test solution, the colour change of the pH indicator was assessed visually against a reference sample (only test solution) at regular intervals. […]
As for `OC[C@H]1O[C@@](CO)(O[C@H]2O[C@H](CO)[C@@H](O)[C@H](O)[C@H]2O)[C@@H](O)[C@@H]1O` [sucrose], the “time within which acid formation can be detected” value is no more than 15 min.
